These results are taken from patent US20050171172A1, “Amide derivatives as PDGFR modulators” (Ambit Biosciences Corporation, priority 2003, published 2005).

Each structure is given as a SMILES string. A value given as a limit tells only on which side of the number the result lay.

T1 sequence (P09619 33-1106): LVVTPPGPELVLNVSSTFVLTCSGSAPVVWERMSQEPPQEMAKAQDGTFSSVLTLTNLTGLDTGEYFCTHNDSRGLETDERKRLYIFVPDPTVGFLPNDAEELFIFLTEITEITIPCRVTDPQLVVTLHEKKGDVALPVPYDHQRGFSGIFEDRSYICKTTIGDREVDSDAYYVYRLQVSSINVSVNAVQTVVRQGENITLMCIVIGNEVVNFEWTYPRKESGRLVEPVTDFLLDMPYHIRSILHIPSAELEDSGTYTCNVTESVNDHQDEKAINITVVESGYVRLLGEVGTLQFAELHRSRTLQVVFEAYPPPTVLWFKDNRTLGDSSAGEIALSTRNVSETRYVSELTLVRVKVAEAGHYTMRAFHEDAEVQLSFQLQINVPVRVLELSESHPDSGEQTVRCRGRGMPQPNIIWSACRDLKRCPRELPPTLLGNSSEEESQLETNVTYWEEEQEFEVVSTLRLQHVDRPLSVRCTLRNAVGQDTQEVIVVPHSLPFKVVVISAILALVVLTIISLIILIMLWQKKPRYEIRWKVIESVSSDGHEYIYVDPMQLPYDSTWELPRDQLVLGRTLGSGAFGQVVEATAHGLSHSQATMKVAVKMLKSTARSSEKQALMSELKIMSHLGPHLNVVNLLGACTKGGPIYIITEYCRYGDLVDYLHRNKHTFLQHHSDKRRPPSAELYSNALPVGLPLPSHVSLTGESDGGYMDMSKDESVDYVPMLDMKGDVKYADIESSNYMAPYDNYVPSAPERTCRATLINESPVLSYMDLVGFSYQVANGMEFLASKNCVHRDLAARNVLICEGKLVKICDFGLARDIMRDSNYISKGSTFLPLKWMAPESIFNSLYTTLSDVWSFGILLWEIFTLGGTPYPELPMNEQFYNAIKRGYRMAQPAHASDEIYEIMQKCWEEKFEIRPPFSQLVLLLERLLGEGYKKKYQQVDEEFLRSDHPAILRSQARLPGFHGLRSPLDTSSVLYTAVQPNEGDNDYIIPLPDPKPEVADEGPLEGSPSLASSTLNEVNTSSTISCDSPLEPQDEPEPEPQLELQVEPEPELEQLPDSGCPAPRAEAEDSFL

The experiment addresses T1, human PDGFR-β (Homo sapiens, UniProt P09619).
T1 construct: made in house
Description: phage-display-based competitive binding assay for PDGFR-β. The note with it: T7 phage displaying human PDGFR-β; Kd class; read-out: Binding Assay:PDGFRB (DKIN). The method, then: The term “ND” represents non-determined values.
Kd values for the interactions between PDGFR-β and candidate small molecule ligands were measured by a phage-display-based competitive binding assay that is described in detail in U.S. Ser. No. 10/406,797 filed 2 Apr. 2003 and incorporated herein by reference. Briefly, T7 phage displaying human PDGFR-β were incubated with an affinity matrix coated with known PDGFR-β inhibitor in the presence of various concentrations of the soluble competitor molecules. […] The Kd for the interaction between the soluble competitor molecule and PDGFR-β is equal to the concentration of soluble competitor molecule that causes a 50% reduction in the number of phage recovered in the eluate compared to a control sample lacking soluble competitor. Kd values for the interaction between PDGFR-β and several small molecules are shown in below: […]
With `Cc1csc(NC(=O)Cc2ccc(OCc3ccccc3)cc2)n1`, the Kd is more than 10000 nM.

In the case of `CC(C)(C)c1cc(NC(=O)Sc2ccc(Cl)cc2)no1`, the Kd is more than 10000 nM. Consider `Cn1cc(C(=O)Nc2ccc(CC(=O)Nc3cc(C(C)(C)C)on3)cc2)c2ccccc21`, for which the Kd was less than 100 nM.

Take `COc1cccc2sc(NC(=O)Cc3ccc(OCc4ccccc4)cc3)nc12`: the Kd is more than 10000 nM. For `Cc1cnc(NC(=O)Cc2ccc(OCc3ccccc3)cc2)s1`, the Kd is more than 10000 nM. Then `CC(C)(C)c1cc(NC(=O)Cc2ccc(Br)cc2)on1`, with less than 100 nM. For the compound `O=C(Cc1ccc(OCc2ccccc2)cc1)Nc1nc(-c2ccc(Cl)cc2)cs1`, the Kd is more than 10000 nM.

In the case of `CC(C)(C)c1cc(NC(=O)Cc2ccc(F)cc2)on1`, the Kd is 100 to 1000 nM. For the compound `COc1ccc(CC(=O)Nc2cc(C(C)(C)C)no2)cc1`, the Kd is less than 100 nM. With `O=C(Cc1ccc(OCc2ccccc2)cc1)Nc1nc2ccccc2s1`, the Kd is more than 10000 nM. Then `CC(C)(C)c1cc(NC(=O)Cc2ccc(O)cc2)no1`, with more than 10000 nM. On to `CSc1ncc(Br)c(C(=O)Nc2ccc(CC(=O)Nc3cc(C(C)(C)C)on3)cc2)n1`, for which the Kd is less than 100 nM.

Consider `Cc1nn(C)c(Cl)c1C(=O)Nc1ccc(CC(=O)Nc2cc(C(C)(C)C)on2)cc1`, for which the Kd fell in the range of 100 to 1000 nM.

As for `CC(C)(C)c1cc(NC(=O)Cc2ccc(OCc3ccccc3)cc2)on1`, the Kd was less than 100 nM. With `CC(C)Cc1ccc(C(C)C(=O)Nc2ccnn2-c2ccccc2)cc1` (stereo not shown) the figure was more than 10000 nM; with `CC(C)(C)c1cc(NC(=O)Cc2ccc(NC(=O)c3cnc4ccccc4c3)cc2)no1`, less than 100 nM. Then `COc1ccc(SC(=O)Nc2cc(C(C)(C)C)on2)cc1`, with 1000 to 10000 nM; and `COc1cccc2cc([C@H](C)C(=O)Nc3cc(C(C)(C)C)on3)ccc12`, with 100 to 1000 nM. Then `CC(C)(C)c1cc(NC(=O)Cc2ccc(Cl)cc2)on1`, with 100 to 1000 nM. `CC(C)(C)c1cc(NC(=O)Cc2ccc(NC(=O)c3cccc4cccnc34)cc2)no1`: the Kd lay within 1000 to 10000 nM. Then `Cc1cc(C)n(C(=O)Nc2ccc(Cl)cc2)n1`, with more than 10000 nM; and `CC(C)(C)c1cc(NC(=O)Cc2ccc(NC(=O)c3ccc4cnccc4n3)cc2)no1`, with less than 100 nM.
